Results from patent US20160039917A1, “Method for Treating Eclampsia and Preeclampsia” (VELO BIO, LLC, priority 2013, published 2016).
Where two headings read alike, the source gives them in different places.

How the values were obtained:
[1] = tested on: human placental EDLF production (fetal tissues); test: Placental explant culture (fetal side), EDLF released into media measured by Digibind RIA; format: cell-based; settings: for EDLF in the conditioned media, earlier time points / EDLF concentration in the conditioned media: 2 μM; for EDLF in the conditioned media, earlier time points: early time point experiment; for EDLF production: fetal tissues; for EDLF accumulation in culture: time course
[2] = tested on: human placental EDLF production (maternal tissues); settings: 48 hours
Procedure: Human placenta was dissected into fetal and maternal tissues. These were incubated in buffered culture media for 48 hours in the absence or presence of graded concentrations of ketoconazole. The culture media was collected and the amount of EDLF released from the tissue was measured using an RIA.
At the end of incubation, samples of the culture medium were collected in 15 mL conical tubes and any residual villi were removed by centrifuging at 4000 RPM for 2 min. The supernatant was stored at −80° C. as conditioned medium until later processing and assay.
After the homogenization and tissue culture processes, homogenate and conditioned media samples were collected and assayed by radioimmunoassay. Digibind (GlaxoSmithKline, Research Triangle Park, N.C., USA) was used as the primary antibody anti-EDLF/ouabain and a rabbit anti-sheep immunoglobulin (IgG) Fab fragment antibody (Jackson ImmunoResearch Laboratories, Inc., West Grove, Pa., USA) was used as the secondary antibody. […] Tritiated ouabain (30.0 Ci/mmol, Perkin Elmer, Boston, Mass., USA) was used as a tracer. Cold ouabain solutions at graded concentrations were used as standards. A 100 μL aliquot of specimen or standard ouabain solution (50 nM, 0.1 μM, 0.2 μM, 0.5 μM, 1 μM, 3 μM), plus 50 μL of a 2.22×10^-8 M tritiated ouabain solution, 300 μL of 1.8 μg/mL Digibind solution, 60 μL of 2.12×10^-7 M 2° Ab solution and 10 μL of 10 mM pH 7.4 Tris buffer were combined and mixed well, then allowed to incubate at room temperature overnight to allow antigen-antibody binding. For the assay of conditioned media, because samples contained DMEM medium, 100 μL of DMEM were added to the reaction solutions for each standard and 100 μL of deionized H2O were added to reaction solutions for specimens to bring them to the same volume. EDLF in the several conditioned media/homogenate specimens or standard cold ouabain in the calibrating solutions competed with the labeled ouabain for Digibind and then the secondary (2°) antibody was added to bind to the primary (1°) antibody-antigen complex to decrease its solubility. After the overnight incubation, 563 μL of 16% polyethylene glycol (PEG)-6000 (Calbiochem, La Jolla, Calif., USA) was added to each reaction solution to precipitate the antibody-antigen complex. After centrifugation at 13,200 rpm for 30 min, the supernatant was discarded and the pellet was resuspended in 500 μL of 0.05 M phosphate buffer (pH 7.0).

[3] = tested on: placental ROS release (lipid peroxides); settings: 48 hours
Procedure: (§1) For these studies placentas from uncomplicated pregnancies were obtained immediately after delivery and 4-5 small tissue pieces (˜5 mm×5 mm×5 mm) were cut off from the inner fetal side. The tissue pieces were dissected into tiny pieces with sterilized scissors. Any visible clots and blood vessels were removed with sterilized tweezers. The remaining villi were washed repeatedly with PBS to remove blood from the intervillous space. Villous tissue of ˜5 mg/well was then patted dry by sterilized paper tower and incubated in a 6-well cell culture plate with 5 mL of serum-free DMEM (Gibson, Grand Island, N.Y., USA) containing 100 U/mL penicillin, 100 μg/mL streptomycin and 0.25 μg/mL amphotericin B (Sigma, St. Louis, Mo., USA) per well for 48 hours at 37° C. in an incubator gassed with 95% air and 5% CO2.
(§2) Conditioned media from placental explants cultured with hydrogen peroxide or under low O2 conditions were collected and assayed by a Lipid Hydroperoxide (LPO) Assay Kit (Cayman Chemical, Ann Arbor, Mich., USA) and a human TNF-alpha Quantikine ELISA Kit (R&D Systems, Minneapolis, Minn., USA) following the manufacturers' methods to determine levels of lipid oxidation.

[4] = tested on: placental TNFα release; settings: 48 hours
Procedure: as §1, §2

Compound: CC(=O)[C@H]1CC[C@H]2[C@@H]3CC=C4C[C@@H](O)CC[C@]4(C)[C@H]3CC[C@]12C [pregnenolone]
- EDLF in the conditioned media, earlier time points ([1]; 3 hours): 77.4+25.0 ×10^−8 M
- EDLF concentration in the conditioned media ([1]; 6 hours): 325.6±61.0 ×10^−8 M
- EDLF in the conditioned media, earlier time points ([1]; 6 hours): 76.8+35.0 ×10^−8 M ouabain equivalents
- EDLF concentration in the conditioned media ([1]; 12 hours): 136.1±27.7 ×10^−8 M
- EDLF concentration in the conditioned media ([1]; 24 hours): 148.4±15.1 ×10^−8 M
- EDLF concentration in the conditioned media ([1]; 36 hours): 113.6±14.4 ×10^−8 M
- EDLF concentration in the conditioned media ([1]; 48 hours): 48.5±7.4 ×10^−8 M

Compound: TNFα
- EDLF released into the culture media ([1]; 48 hours, 1.0 nM): 2.41±0.80 ×10^−8M ouabain equivalents
- EDLF released into the culture media ([1]; 48 hours, 2.0 nM): 2.75±0.98 ×10^−8M ouabain equivalents
- EDLF released into the culture media ([1]; 48 hours, 5.0 nM): 2.76±0.80 ×10^−8M ouabain equivalents
- EDLF released into the culture media ([1]; 48 hours, 10.0 nM): 3.51±0.69 ×10^−8M ouabain equivalents
- EDLF released into the culture media ([1]; 48 hours, 20.0 nM): 4.47±0.99 ×10^−8M ouabain equivalents

Compound: CC(=O)[C@H]1CC[C@H]2[C@@H]3CCC4=CC(=O)CC[C@]4(C)[C@H]3CC[C@]12C [Progesterone, progesterone]
- effect on EDLF production ([1]; placenta): little or no effect

Compound: CC(=O)N1CCN(c2ccc(OCC3COC(Cn4ccnc4)(c4ccc(Cl)cc4Cl)O3)cc2)CC1 (stereo not drawn) [ketoconazole]
- EDLF production ([1]; 48 hours, 1.0 μM): 7.99±13.21 ×10^−8 M RIA ouabain equivalents
- EDLF production ([1]; 48 hours, 2.0 μM): 5.58±8.91 ×10^−8 M RIA ouabain equivalents
- EDLF production ([1]; 48 hours, 5.0 μM): 1.60±1.62 ×10^−8 M RIA ouabain equivalents
- EDLF production ([1]; 48 hours, 10.0 μM): 1.47±1.64 ×10^−8 M RIA ouabain equivalents
- EDLF production ([1]; 48 hours, 20.0 μM): 1.25±1.43 ×10^−8 M RIA ouabain equivalents
- EDLF production ([2]; 1.0 μM): 1.90±2.05 ×10^−8 M RIA ouabain equivalents
- EDLF production ([2]; 2.0 μM): 1.79±1.96 ×10^−8 M RIA ouabain equivalents
- EDLF production ([2]; 5.0 μM): 1.83±2.03 ×10^−8 M RIA ouabain equivalents
- EDLF production ([2]; 10.0 μM): 1.73±1.82 ×10^−8 M RIA ouabain equivalents
- EDLF production ([2]; 20.0 μM): 2.46±2.60 ×10^−8 M RIA ouabain equivalents

Compound: OO [H2O2, hydrogen peroxide]
- released EDLF ([1]; 48 hours, 5 nM): 4.87±1.57 ×10^−8 M ouabain equivalents
- EDLF levels in the media ([1]; higher concentrations (10 nM, 20 nM)): equal or slightly lower than those treated with 5 nM H2O2
- lipid peroxides ([3]; 1.0 nM): 6.62 ± 3.31 µM
- lipid peroxides ([3]; 5.0 nM): 9.17 ± 3.18 µM
- lipid peroxides ([3]; 10.0 nM): 11.43 ± 3.67 µM
- lipid peroxides ([3]; 20.0 nM): 13.13 ± 5.04 µM
- TNFα release ([4]; 1.0 nM): 18.61 ± 13.60 pg/mL
- TNFα release ([4]; 5.0 nM): 14.95 ± 6.39 pg/mL
- TNFα release ([4]; 10.0 nM): 15.83 ± 6.63 pg/mL
- TNFα release ([4]; 20.0 nM): 13.50 ± 3.43 pg/mL

Compound: CC(=O)[C@@]1(O)CC[C@H]2[C@@H]3CCC4=CC(=O)CC[C@]4(C)[C@H]3CC[C@@]21C [17P, 17α-hydroxyprogesterone]
- EDLF released into the culture media ([1]; 48 hours, 0.20 μM): 3.60±1.06 ×10^−8 M ouabain equivalents
- EDLF released into the culture media ([1]; 48 hours, 0.50 μM): 3.76±0.84 ×10^−8 M ouabain equivalents
- EDLF released into the culture media ([1]; 48 hours, 1.0 μM): 4.40±1.12 ×10^−8 M ouabain equivalents
- EDLF released into the culture media ([1]; 48 hours, 2.0 μM): 4.91±1.52 ×10^−8 M ouabain equivalents
- EDLF accumulation in culture ([1]; 2.0 μM, 6 hours): 12.60±3.81 ×10^−8 M ouabain equivalents
- EDLF accumulation in culture ([1]; 2.0 μM, 12 hours): 28.30±6.30 ×10^−8 M ouabain equivalents
- EDLF accumulation in culture ([1]; 2.0 μM, 24 hours): 55.39±33.62 ×10^−8 M ouabain equivalents
- EDLF accumulation in culture ([1]; 2.0 μM, 36 hours): 95.00±40.44 ×10^−8 M ouabain equivalents
- EDLF accumulation in culture ([1]; 2.0 μM, 48 hours): 132.43±74.37 ×10^−8 M ouabain equivalents
